Experimental findings from ChEMBL document CHEMBL3421544, “Design, synthesis and biological evaluation of pyridazino[3,4,5-de]quinazolin-3(2H)-one as a new class of PARP-1 inhibitors” (Bioorg Med Chem Lett, 2015) are described below.

Test [1] has as its system PC-12. Put plainly: Neuroprotective activity against H2O2 -mediated injury in rat PC12 cells assessed as cell survival at 0.01 uM relative to control. The format is functional. To be noted: read-out: Survival.
The subject of test [2] is PC-12. The test can be described thus: Neuroprotective activity against H2O2 -mediated injury in rat PC12 cells assessed as cell survival at 0.1 uM relative to control. The format is functional. To be noted: read-out: Survival.
In test [3] the test system is PC-12. The test can be described thus: Neuroprotective activity against H2O2 -mediated injury in rat PC12 cells assessed as cell survival at 1 uM relative to control. The class given is functional. To be noted: read-out: Survival.
The target in test [4] is Poly [ADP-ribose] polymerase 1 (Homo sapiens) (UniProt P09874). The test can be described thus: Inhibition of PARP1 (unknown origin) at 2.8 uM.
Sequence of Poly [ADP-ribose] polymerase 1 (Homo sapiens) (P09874 whole entry): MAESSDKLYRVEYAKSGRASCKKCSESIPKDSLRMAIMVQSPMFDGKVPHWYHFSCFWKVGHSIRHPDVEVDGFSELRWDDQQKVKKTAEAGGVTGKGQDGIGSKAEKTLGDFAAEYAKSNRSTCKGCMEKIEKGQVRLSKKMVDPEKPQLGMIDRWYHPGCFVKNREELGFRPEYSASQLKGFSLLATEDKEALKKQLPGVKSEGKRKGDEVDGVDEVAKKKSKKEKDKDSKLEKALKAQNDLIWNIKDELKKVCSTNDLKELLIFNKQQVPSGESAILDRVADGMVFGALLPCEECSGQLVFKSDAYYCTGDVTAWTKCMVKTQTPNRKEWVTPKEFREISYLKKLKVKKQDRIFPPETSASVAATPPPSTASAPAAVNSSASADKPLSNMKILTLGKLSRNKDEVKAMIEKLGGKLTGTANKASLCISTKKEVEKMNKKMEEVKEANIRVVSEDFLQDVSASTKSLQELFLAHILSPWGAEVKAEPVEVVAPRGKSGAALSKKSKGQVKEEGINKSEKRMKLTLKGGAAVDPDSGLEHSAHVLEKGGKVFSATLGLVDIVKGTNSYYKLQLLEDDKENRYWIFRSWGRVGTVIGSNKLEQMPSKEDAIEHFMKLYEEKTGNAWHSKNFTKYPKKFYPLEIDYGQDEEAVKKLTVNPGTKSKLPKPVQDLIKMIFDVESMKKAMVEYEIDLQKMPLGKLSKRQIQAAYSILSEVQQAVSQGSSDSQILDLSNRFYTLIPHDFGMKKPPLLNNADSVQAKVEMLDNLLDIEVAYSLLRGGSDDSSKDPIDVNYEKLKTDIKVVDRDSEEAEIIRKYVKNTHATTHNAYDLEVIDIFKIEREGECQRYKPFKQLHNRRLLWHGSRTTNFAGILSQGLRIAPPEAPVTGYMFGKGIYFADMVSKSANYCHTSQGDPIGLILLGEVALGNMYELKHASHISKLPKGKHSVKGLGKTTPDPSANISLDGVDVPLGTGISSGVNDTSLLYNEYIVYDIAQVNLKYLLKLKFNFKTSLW

On to `O=c1[nH]nc2c3c(cccc13)N=C(c1ccccc1)N2`, for which the viability at 0.01 µM in test [1] was 81.6%. For the same molecule, the viability at 0.1 µM in test [2] is 98.2%. Further, the viability at 1 µM in test [3] stood at 88.5%.

Regarding `NC(=O)c1ccccc1`, the inhibition in test [4] stood at 59.3%.

On to `Cc1ccc(C2=Nc3cccc4c(=O)[nH]nc(c34)N2)cc1`, for which the viability at 0.01 µM in test [1] is 70.9%. The viability at 0.1 µM in test [2] was determined as 97.2%. In test [3], the viability at 1 µM was 98%.

As for `COCCOC(=O)C1=C(C)NC(C)=C(C(=O)OC(C)C)C1c1cccc([N+](=O)[O-])c1` (stereo not drawn) [NIMODIPINE], the viability at 1 µM in test [3] is 90.4%.
